# Results taken from ChEMBL document CHEMBL4819070, “Synthesis and biological evaluation of 2-(4-alkoxy-3-cyano)phenylpyrimidine derivatives with 4-amino or 4-hydroxy as a pharmacophore element binding with xanthine oxidase active site” (Bioorg Med Chem, 2021).
# Activity calls are given as the source filed them. No cut-off for these calls is given here.
# Key:
# [1] = target: T1, Xanthine dehydrogenase/oxidase (Bos taurus, UniProt P80457); assay: Inhibition of bovine milk xanthine oxidase assessed as reduction in uric acid formation using xanthine as substrate preincubated for 15 mins followed by substrate addition measured for every 30 sec by spectrophotometric analysis
# [2] = target: T1, Xanthine dehydrogenase/oxidase; assay: Inhibition of bovine milk xanthine oxidase assessed as reduction in uric acid formation at 10 uM using xanthine as substrate preincubated for 15 mins followed by substrate addition measured for every 30 sec by spectrophotometric analysis relative to control; settings: cattle, 0.5 min
# [3] = target: T1, Xanthine dehydrogenase/oxidase; assay: Inhibition of bovine milk xanthine oxidase assessed as increase in Km at 0.01 to 0.06 uM by Lineweaver-Burk plot analysis; settings: cattle, dose 0.01-0.06 µM
# [4] = system: Rattus norvegicus; assay: Hypouricemic activity in Sprague-Dawley rat model of Potassium oxonate-induced acute hyperuricemia assessed as decrease in serum uric acid at 30 to 90 mg/kg, IG administered after potassium oxonate treatment and measured at 1 hr; type: functional, organism-based; settings: dose 30-90 mg/kg
# [5] = target: T1, Xanthine dehydrogenase/oxidase; assay: Inhibition of bovine milk xanthine oxidase assessed as decrease in Vmax at 0.01 to 0.06 uM by Lineweaver-Burk plot analysis; settings: cattle, dose 0.01-0.06 µM
# [6] = system: Rattus norvegicus; assay: Hypouricemic activity in Sprague-Dawley rat model of Potassium oxonate-induced acute hyperuricemia assessed as decrease in serum uric acid AUC (1 to 8 hrs) at 30 to 90 mg/kg, IG administered after potassium oxonate treatment and measured at 1 hr; type: functional, organism-based; settings: dose 30-90 mg/kg
# [7] = target: T1, Xanthine dehydrogenase/oxidase; assay: Mixed type inhibition of bovine milk xanthine oxidase assessed as inhibitory constant using xanthine as substrate preincubated for 15 mins followed by substrate addition measured for every 30 sec by spectrophotometric analysis
# [8] = system: Rattus norvegicus; assay: Hypouricemic activity in Sprague-Dawley rat model of Potassium oxonate-induced acute hyperuricemia assessed as decrease in serum uric acid at 10 mg/kg, IG administered after potassium oxonate treatment and measured upto 8 hrs; type: functional, organism-based; settings: time hrs <=8
# T1 sequence (P80457 whole entry): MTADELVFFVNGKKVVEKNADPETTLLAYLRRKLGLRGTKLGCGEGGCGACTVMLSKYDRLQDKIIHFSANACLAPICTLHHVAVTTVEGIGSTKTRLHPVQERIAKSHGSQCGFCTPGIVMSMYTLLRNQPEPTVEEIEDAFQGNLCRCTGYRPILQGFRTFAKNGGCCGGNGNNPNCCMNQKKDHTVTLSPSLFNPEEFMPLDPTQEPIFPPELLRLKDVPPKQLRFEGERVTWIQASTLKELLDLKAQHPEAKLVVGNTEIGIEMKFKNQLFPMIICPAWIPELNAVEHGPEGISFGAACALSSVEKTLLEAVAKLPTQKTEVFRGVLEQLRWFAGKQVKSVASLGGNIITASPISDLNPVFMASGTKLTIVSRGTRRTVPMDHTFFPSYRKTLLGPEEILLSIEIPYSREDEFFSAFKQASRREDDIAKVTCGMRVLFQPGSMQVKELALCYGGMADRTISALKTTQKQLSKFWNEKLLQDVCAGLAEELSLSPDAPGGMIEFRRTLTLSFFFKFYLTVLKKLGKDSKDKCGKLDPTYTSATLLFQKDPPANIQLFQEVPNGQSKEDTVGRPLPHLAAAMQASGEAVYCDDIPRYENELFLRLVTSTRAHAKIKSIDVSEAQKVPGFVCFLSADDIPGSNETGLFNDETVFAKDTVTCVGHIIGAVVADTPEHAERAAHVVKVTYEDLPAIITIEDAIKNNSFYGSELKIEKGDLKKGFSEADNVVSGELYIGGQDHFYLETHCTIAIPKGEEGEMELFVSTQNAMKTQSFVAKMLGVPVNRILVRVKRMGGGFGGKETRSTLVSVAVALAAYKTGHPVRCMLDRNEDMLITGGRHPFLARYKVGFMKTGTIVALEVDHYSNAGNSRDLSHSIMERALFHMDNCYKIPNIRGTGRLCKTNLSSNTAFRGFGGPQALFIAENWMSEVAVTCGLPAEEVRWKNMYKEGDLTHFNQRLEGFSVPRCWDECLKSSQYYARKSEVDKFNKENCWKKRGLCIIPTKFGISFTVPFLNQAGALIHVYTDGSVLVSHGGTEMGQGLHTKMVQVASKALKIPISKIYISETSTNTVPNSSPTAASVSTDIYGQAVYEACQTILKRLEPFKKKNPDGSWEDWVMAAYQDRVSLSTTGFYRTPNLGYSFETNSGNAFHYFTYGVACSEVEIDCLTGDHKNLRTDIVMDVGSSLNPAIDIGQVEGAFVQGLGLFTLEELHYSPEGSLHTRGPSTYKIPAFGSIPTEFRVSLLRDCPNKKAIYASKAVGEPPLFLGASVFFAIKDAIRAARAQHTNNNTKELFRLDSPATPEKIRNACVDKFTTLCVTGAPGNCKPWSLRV
SMILES,IC50 [1] [µM],other results
CC(C)COc1ccc(-c2nc(N)cc(O)n2)cc1C#N,0.13,–
CC(C)=COc1ccc(-c2nccc(O)n2)cc1C#N,0.055,–
N#Cc1cc(-c2nccc(O)n2)ccc1OCc1ccccc1,0.066,–
N#Cc1cc(-c2nccc(O)n2)ccc1OCc1ccc(Br)cc1,0.095,–
N#Cc1cc(-c2nccc(O)n2)ccc1OCc1ccc(F)cc1,0.075,–
CC(C)COc1ccc(-c2ncccn2)cc1C#N,1.61,–
N#Cc1cc(-c2nccc(O)n2)ccc1OCc1ccccc1F,0.06,–
N#Cc1cc(-c2nccc(O)n2)ccc1O,–,inhibition at 10 µM [2]: < 50%
CC(C)CCOc1ccc(-c2nccc(O)n2)cc1C#N,0.046,inhibition (INH) [3]: Active; Activity [4]: Active; inhibition (INH) [5]: Active; Activity [6]: Active; Ki [7]: 0.018 µM; Activity [8]: inactive
N#Cc1cc(-c2nccc(O)n2)ccc1OCc1ccc(Cl)cc1,0.148,–
CC(C)Oc1ccc(-c2nccc(O)n2)cc1C#N,0.074,–
N#Cc1cc(-c2nc(N)cc(O)n2)ccc1OCc1ccccc1,0.209,–
Cc1ccc(COc2ccc(-c3nccc(O)n3)cc2C#N)cc1,0.079,–
N#Cc1cc(-c2ncccn2)ccc1OCc1ccccc1,1.95,–
CC(C)(C)c1ccc(COc2ccc(-c3nccc(O)n3)cc2C#N)cc1,0.282,–
N#Cc1cc(-c2nccc(O)n2)ccc1OCc1cccc(F)c1,0.077,–
COc1ccc(COc2ccc(-c3nccc(O)n3)cc2C#N)cc1,0.193,–

# Continued, in another order:
IC50 [1] [µM],SMILES,other results
0.275,N#Cc1cc(-c2nc(N)cc(O)n2)ccc1OCC1CCCCC1,–
0.073,N#Cc1cc(-c2nccc(O)n2)ccc1OCC1CCCCC1,–
0.069,CC(C)COc1ccc(-c2nccc(O)n2)cc1C#N,–
0.179,COc1ccc(-c2nccc(O)n2)cc1C#N,–
4.45,N#Cc1cc(-c2ncccn2)ccc1OCC1CCCCC1,–
0.262,CC(C)COc1ccc(-c2nccc(N)n2)cc1C#N,–
0.093,N#Cc1cc(-c2nccc(O)n2)ccc1OCC1CC1,–
0.539,N#Cc1cc(-c2nccc(N)n2)ccc1OCC1CCCCC1,–
0.347,N#Cc1cc(-c2nccc(N)n2)ccc1OCc1ccccc1,–
